Data reported in patent publication US20260258064A1 (SIRONAX LTD., priority 2023, published 2026).

Target: T1, SARM1 (50-724) (Homo sapiens, UniProt Q6SZW1)
T1 construct: Purified SARM1 (50-724) with a final concentration of 2 nM was pre-incubated with a test compound
T1 sequence (Q6SZW1 50-724): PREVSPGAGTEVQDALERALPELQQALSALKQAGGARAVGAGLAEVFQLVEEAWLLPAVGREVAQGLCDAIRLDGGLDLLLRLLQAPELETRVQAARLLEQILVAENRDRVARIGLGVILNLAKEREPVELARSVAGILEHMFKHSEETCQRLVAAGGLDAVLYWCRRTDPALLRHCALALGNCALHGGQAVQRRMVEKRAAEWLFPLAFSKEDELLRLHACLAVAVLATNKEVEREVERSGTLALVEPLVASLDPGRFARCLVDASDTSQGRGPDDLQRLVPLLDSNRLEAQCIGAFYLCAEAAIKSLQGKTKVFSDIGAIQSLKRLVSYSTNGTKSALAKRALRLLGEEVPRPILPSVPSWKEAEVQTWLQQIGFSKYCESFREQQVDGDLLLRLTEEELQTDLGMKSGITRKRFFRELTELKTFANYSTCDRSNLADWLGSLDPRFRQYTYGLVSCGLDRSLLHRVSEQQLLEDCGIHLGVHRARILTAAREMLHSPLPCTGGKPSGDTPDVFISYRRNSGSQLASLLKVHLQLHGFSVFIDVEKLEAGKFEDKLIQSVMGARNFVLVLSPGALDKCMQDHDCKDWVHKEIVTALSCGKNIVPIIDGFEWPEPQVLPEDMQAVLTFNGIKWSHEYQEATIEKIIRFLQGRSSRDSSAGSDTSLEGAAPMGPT
Test: SARM1 (50-724) enzymatic assay (LC-MS/MS)
Type: biochemical
Settings: Purified SARM1 (50-724) 2 nM, NMN as activator, NAD+ as substrate, 1 h at room temperature, read-out: IC50 (SARM1 inhibitory activity)
Summary of the method: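 Human SARM1 (50-724), 2 nM, pre-incubated 15 min at room temperature with compound in Dulbecco's PBS. Reaction started with 200 µM NMN (activator) plus […] NAD^+ substrate, run 1 h at room temperature, quenched with 70% acetonitrile. Turnover quantified by LC-MS/MS; IC50 reported.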

Row | SMILES | IC50
1 | CC(c1ccncc1)c1cc(F)c2[nH]c(-c3nncn3-c3cccc(F)c3Br)nc2c1 (stereo not shown) [Compound 462, 2-(4-(2-bromo-3-fluorophenyl)-4H-1,2,4-triazol-3-yl)-7-fluoro-5-(1-(pyridin-4-yl)ethyl)-1H-benzo[d]imidazole] | ≤ 100 nM
2 | OC1(c2ccc3[nH]c(-c4nncn4-c4cccc(Cl)c4Cl)nc3c2)CC1 [Example 133] | ≤ 100 nM
3 | CC(c1cc(F)c2[nH]c(-c3nncn3-c3cnccc3C(F)(F)F)nc2c1)C(F)(F)F (stereo not shown) [Compound 278, 7-fluoro-2-(4-(4-(trifluoromethyl)pyridin-3-yl)-4H-1,2,4-triazol-3-yl)-5-(1,1,1-trifluoropropan-2-yl)-1H-benzo[d]imidazole] | ≤ 100 nM
4 | FC(F)(F)c1ccc2[nH]c(-c3nncn3-c3cnccc3C(F)(F)F)c(-c3cccnc3)c2c1 [Compound 387, 3-(pyridin-3-yl)-5-(trifluoromethyl)-2-(4-(4-(trifluoromethyl)pyridin-3-yl)-4H-1,2,4-triazol-3-yl)-1H-indole] | ≤ 100 nM
5 | Fc1cc(C(F)(F)F)cc2nc(-c3nncn3-c3cnccc3C(F)(F)F)[nH]c12 [Compound 233, 7-Fluoro-5-(trifluoromethyl)-2-(4-(4-(trifluoromethyl)pyridin-3-yl)-4H-1,2,4-triazol-3-yl)-1H-benzo[d]imidazole] | ≤ 100 nM
6 | Cc1nsc(Cl)c1-n1cnnc1-c1nc2cc(C(F)(F)F)ccc2[nH]1 [Example 118] | ≤ 100 nM
7 | CN1CCC(n2cnnc2-c2nc3cc(C(F)(F)F)ccc3[nH]2)C1 (stereo not shown) [Compound 202, 2-(4-(1-methylpyrrolidin-3-yl)-4H-1,2,4-triazol-3-yl)-5-(trifluoromethyl)-1H-benzo[d]imidazole] | > 1000 nM
8 | CC1(c2ccc3[nH]c(-c4nncn4-c4ccncc4OC(F)(F)F)nc3c2)CC1 [Compound 224, 5-(1-methylcyclopropyl)-2-(4-(3-(trifluoromethoxy)pyridin-4-yl)-4H-1,2,4-triazol-3-yl)-1H-benzo[d]imidazole] | ≤ 100 nM
9 | CNC(=O)c1cc(F)c(Cl)c(-n2cnnc2-c2nc3cc(C(F)(F)F)cc(F)c3[nH]2)c1 [Compound 205, 4-chloro-3-fluoro-5-(3-(7-fluoro-5-(trifluoromethyl)-1H-benzo[d]imidazol-2-yl)-4H-1,2,4-triazol-4-yl)-N-methylbenzamide] | ≤ 100 nM
10 | FC(F)(F)c1ccc2[nH]c(-c3nncn3-c3cnccc3C(F)(F)F)c(-c3ncccn3)c2c1 [Compound 428, 3-pyrimidin-2-yl-5-(trifluoromethyl)-2-[4-[4-(trifluoromethyl)-3-pyridyl]-1,2,4-triazol-3-yl]-1H-indole] | ≤ 100 nM
11 | COc1cc(F)c2[nH]c(-c3nncn3-c3cnccc3C(F)(F)F)nc2c1 [Compound 328, 7-fluoro-5-methoxy-2-(4-(4-(trifluoromethyl)pyridin-3-yl)-4H-1,2,4-triazol-3-yl)-1H-benzo[d]imidazole] | ≤ 100 nM
12 | Cc1c(Cl)ccc2[nH]c(-c3nncn3-c3ccc(F)c(F)c3Cl)nc12 [Compound 164, 5-chloro-2-(4-(2-chloro-3,4-difluorophenyl)-4H-1,2,4-triazol-3-yl)-4-methyl-1H-benzo[d]imidazole] | ≤ 100 nM
13 | Cc1ccc2[nH]c(-n3[nH]c(=O)nc3-c3cccc(Cl)c3Cl)nc2c1 [Compound 26, 5-(2,3-dichlorophenyl)-1-(5-methyl-1H-benzo[d]imidazol-2-yl)-1,2-dihydro-3H-1,2,4-triazol-3-one] | > 1000 nM
14 | FC(F)(Cl)Oc1cnccc1-n1cnnc1-c1nc2cc(C(F)(F)F)ccc2[nH]1 [Compound 215, 2-(4-(3-(chlorodifluoromethoxy)pyridin-4-yl)-4H-1,2,4-triazol-3-yl)-5-(trifluoromethyl)-1H-benzo[d]imidazole] | ≤ 100 nM
15 | Cn1ccc(C(F)(F)F)c(-n2cnnc2-c2nc3cc(C(F)(F)F)ccc3[nH]2)c1=O [Compound 279, 1-methyl-4-(trifluoromethyl)-3-(3-(5-(trifluoromethyl)-1H-benzo[d]imidazol-2-yl)-4H-1,2,4-triazol-4-yl)pyridin-2(1H)-one] | > 1000 nM
16 | FC(F)c1nnc(-c2nc3cc(C(F)(F)F)ccc3[nH]2)n1-c1cnccc1C(F)(F)F [Compound 306, 2-(5-(difluoromethyl)-4-(4-(trifluoromethyl)pyridin-3-yl)-4H-1,2,4-triazol-3-yl)-5-(trifluoromethyl)-1H-benzo[d]imidazole] | ≤ 100 nM
17 | FC(F)(F)c1cc2nc(-c3nncn3-c3cccc(Cl)c3Cl)[nH]c2cn1 [Compound 142, 2-(4-(2,3-dichlorophenyl)-4H-1,2,4-triazol-3-yl)-6-(trifluoromethyl)-3H-imidazo[4,5-c]pyridine] | > 1000 nM
18 | Clc1cccc(-n2cnnc2-c2nc3cc(Br)ccc3[nH]2)c1Cl [Compound 49, 5-bromo-2-(4-(2,3-dichlorophenyl)-4H-1,2,4-triazol-3-yl)-1H-benzo[d]imidazole] | ≤ 100 nM
19 | CC(C)(C)c1ccc2[nH]c(-c3nncn3-c3nc(O)ccc3Cl)nc2c1 [Compound 148, 6-(3-(5-(tert-butyl)-1H-benzo[d]imidazol-2-yl)-4H-1,2,4-triazol-4-yl)-5-chloropyridin-2(1H)-one] | ≤ 100 nM
20 | CC(C#N)c1ccc2[nH]c(-c3nncn3-c3ccc(F)c(F)c3Cl)nc2c1 (stereo not shown) [Compound 152, 2-(2-(4-(2-chloro-3,4-difluorophenyl)-4H-1,2,4-triazol-3-yl)-1H-benzo[d]imidazol-5-yl)propanenitrile] | ≤ 100 nM
21 | Cc1ccc2[nH]c(-c3ncccc3C3CCCC3)nc2c1 [Compound 7, 2-(3-cyclopentylpyridin-2-yl)-5-methyl-1H-benzo[d]imidazole] | > 1000 nM
22 | FC(F)(F)c1ccc2[nH]c(-c3nnccc3N3CCOCC3)nc2c1 [Compound 457, 4-(3-(5-(trifluoromethyl)-1H-benzo[d]imidazol-2-yl)pyridazin-4-yl)morpholine] | 500 to 1000 nM

Further lines, results first:

Row | IC50 | SMILES
23 | ≤ 100 nM | NC(=O)Cn1cc(-c2cccc(F)c2Cl)c(-c2nc3cc(C(F)(F)F)ccc3[nH]2)cc1=O [Compound 199, 2-(5-(2-chloro-3-fluorophenyl)-2-oxo-4-(5-(trifluoromethyl)-1H-benzo[d]imidazol-2-yl)pyridin-1(2H)-yl)acetamide]
24 | ≤ 100 nM | CC(C)(O)Cc1nnc(-c2nc3cc(C(F)(F)F)ccc3[nH]2)n1-c1cccc(F)c1Cl [Compound 388, 1-(4-(2-chloro-3-fluorophenyl)-5-(5-(trifluoromethyl)-1H-benzo[d]imidazol-2-yl)-4H-1,2,4-triazol-3-yl)-2-methylpropan-2-ol]
25 | ≤ 100 nM | Cc1c(Cl)ccnc1-n1cnnc1-c1nc2cc(C(F)(F)F)ccc2[nH]1 [Example 67]
26 | 100 to 500 nM | FC(F)(F)c1ccc2[nH]c(-c3cnsc3-c3cccc(Cl)c3Cl)nc2c1 [Example 92]
27 | ≤ 100 nM | Fc1cccc(-n2c(Cn3ccnn3)nnc2-c2nc3cc(C(F)(F)F)ccc3[nH]2)c1Cl [Compound 383, 2-(5-((1H-1,2,3-triazol-1-yl)methyl)-4-(2-chloro-3-fluorophenyl)-4H-1,2,4-triazol-3-yl)-5-(trifluoromethyl)-1H-benzo[d]imidazole]
28 | ≤ 100 nM | NC(=O)C(F)(F)c1ccc2[nH]c(-c3nncn3-c3ccc(F)c(F)c3Cl)nc2c1 [Compound 463, 2-(2-(4-(2-chloro-3,4-difluorophenyl)-4H-1,2,4-triazol-3-yl)-1H-benzo[d]imidazol-5-yl)-2,2-difluoroacetamide]
29 | 100 to 500 nM | FC(F)(F)c1ccc2[nH]c(-c3nccn3-c3cccc(Cl)c3Cl)nc2c1 [Example 57]
30 | 100 to 500 nM | FC(F)(F)c1ccc2[nH]c(-c3ccnnc3-c3cccc(Cl)c3Cl)nc2c1 [Compound 296, 2-(3-(2,3-dichlorophenyl)pyridazin-4-yl)-5-(trifluoromethyl)-1H-benzo[d]imidazole]
31 | ≤ 100 nM | OCCc1cccc(OC(F)(F)F)c1-n1cnnc1-c1nc2cc(C(F)(F)F)ccc2[nH]1 [Compound 295, 2-(3-(trifluoromethoxy)-2-(3-(5-(trifluoromethyl)-1H-benzo[d]imidazol-2-yl)-4H-1,2,4-triazol-4-yl)phenyl)ethan-1-ol]
32 | 100 to 500 nM | FC(F)(F)c1ccc2[nH]c(-c3nnccc3-c3ccncc3C(F)(F)F)nc2c1 [Compound 302, 5-(Trifluoromethyl)-2-(4-(3-(trifluoromethyl)pyridin-4-yl)pyridazin-3-yl)-1H-benzo[d]imidazole]
33 | ≤ 100 nM | FC(F)(F)c1ccc2[nH]c(-c3cncn3-c3cccc(Cl)c3Cl)nc2c1 [Example 45, 2-(1-(2,3-dichlorophenyl)-1H-imidazol-5-yl)-5-(trifluoromethyl)-1H-benzo[d]imidazole]
34 | 100 to 500 nM | Cc1nccc(-n2cnnc2-c2nc3cc(C(F)(F)F)ccc3[nH]2)c1Cl [Example 71]
